Counter-ions that a name gives are not always drawn.
Test: In-vivo testing: plasma pharmacokinetics after single oral gavage of suspension in rats
Details: Sprague-Dawley, rat, 10 mg/kg

## Cc1cn(-c2cc(NC(=O)c3ccc(C)c(Nc4nccc(-c5cccnc5)n4)c3)cc(C(F)(F)F)c2)cn1 [Nilotinib HCl monohydrate, 4-methyl-N-[3-(4-methylimidazol-1-yl)-5-(trifluoromethyl)phenyl]-3-[(4-pyridin-3-ylpyrimidin-2-yl)amino]benzamide]
  AUC(0-t): 2910 ng·h/mL
  Cmax: 493 ng/mL
  Tmax: 2 h
